Data: article PMC8508903, “Novel Dipyridinium Lipophile-Based Ionic Liquids Tethering Hydrazone Linkage: Design, Synthesis and Antitumorigenic Study” (International Journal of Molecular Sciences, 2021)

Columns and labels:
human dermal fibroblasts = test: MTT cell viability assay, normal dermal fibroblasts; type: cell-based; details: Homo sapiens, Fibroblast, 48 h, noncancerous human dermal fibroblasts
Protocol: (§1) To evaluate the effect of the examined series on the viability of different lung cancer cells, MTT assay was conducted after exposing A549, H1299, and H661 cell lines to increasing concentrations of each compound for 48 h. […] Table 2 and Supplementary Figure S92 (see Supplementary Materials) show the 50% inhibitory concentration (IC50) values for the compounds under investigation in A549, H1299, and H661 lung cancer cells.
(§2) The human lung cancer cell lines A549, H1299 and H661 and the normal cells dermal fibroblasts were obtained from the American Type Culture Collection ATCC. Cells were cultured as a monolayer at seeding density of 8 × 10^3 cells per well in high glucose Dulbecco’s modified eagle medium (DMEM) (Invitrogen, USA), as previously described. The in vitro assessment of the antitumorigenic activities related to the studied compounds was undertaken using the 3-(4,5-dimethylthiazol-2yl)-2,5-diphenyl tetrazolium bromide (MTT) colorimetric assay, as previously reported. The compounds under investigation were tested in three triplicates of each concentration in three independent assays for a total of nine replicates. Both positive (cisplatin) and negative (untreated culture) controls were applied under the same experimental conditions. Cells were cultured for 48 h at 37 °C in a 5% CO2 incubator. Afterwards, MTT assay was carried out where viable cell count was determined based on the amount of formazan crystals, as verified by the absorbance at 490 nm.
(§3) Data was analyzed by Graphpad Prism software (Graphpad Software Inc. Jolla, CA, USA) for the determination of IC50 value. All data were expressed as the average of triplicate experiments.

A549 lung cancer cells = test: MTT cell viability assay, A549; type: cell-based, human; details: Homo sapiens, A549, 48 h, mean of three independent experiments (N = 9)
Protocol: as §1, §2, §3

A549 cells [1] = test: Colony formation in soft agar assay; type: cell-based, human; design: Average Colony Size: unit not given here; details: day 12
Protocol: To investigate the effect of treatment with either potent compound 22 or 23 at two different concentrations (5 and 10 µM) on the colony-forming capability of lung cancer cells, A549 cells were treated with either concentration for 24 h. Afterwards, cells were grown on soft agar.
To carry out the soft agar assay, a bottom agar film of 1% (w/v) was prepared by mixing autoclaved 1% (w/v) agar solution with 2× DMEM medium in a 1:1 ratio and allowed to solidify at room temperature. A mixture of 1 × 10^4 of A549 cells treated with either compound NV7 (5 µM and 10 µM) or NV8 (5 µM and 10 µM) and 0.6% (w/v) agar solution was prepared in 1:1 ratio and poured on top of the bottom layer and left to solidify. Plate was incubated for 2 weeks. Photos were captured after 12 days using EVOS XL Core imaging system (Invitrogen, Waltham, MA, USA).

A549 cells [2] = test: Wound healing (migration) assay; type: cell-based; details: Homo sapiens, A549, 24 h, A549, 10 µM, read-out: % inhibition of wound closure
Protocol: The wound healing assay was performed in A549 cells to evaluate the effect of the synthesized series on lung cancer cell migration, as shown in Table 3. The wound of the control sample was completely closed after 24 h. […] Cell migration was inhibited after 24 h of treatment with compounds 22 or 23 compared to untreated control cells.
A549 cells were seeded in inserts (Ibidi GmbH, Gräfelfing, Germany) at concentration of 30,000 per insert in 70 μL medium and incubated for 24 h. Afterward, inserts were removed and cells incubated with 10 μg/mL of mitomycin C for 2 h to stop cell proliferation. The medium was removed, and cells were washed three times then cells were treated with 10 µM concentration of the examined compound. Images were captured at 24 h using BOECO microscope coupled with 5.0 Mega Cmos camera at 4× magnification. Digital images were taken using ISCapture software and wound width was measured using MIPAR software (MIPAR, Worthington, OH, USA).

H661 lung cancer cells = test: MTT cell viability assay, H661; type: cell-based, human; details: mean of three independent experiments (N = 9)
Protocol: as §1, §2, §3

H1299 lung cancer cells = test: MTT cell viability assay, H1299; type: cell-based, human; details: Homo sapiens, NCI-H1299, 48 h, mean of three independent experiments (N = 9)
Protocol: as §1, §2, §3

IC50 (A549 lung cancer cells)	IC50 (H661 lung cancer cells; Homo sapiens, NCI-H661, 48 h)	IC50 (H1299 lung cancer cells)	IC50 (H661 lung cancer cells; 48 h)	SMILES	IC50 (human dermal fibroblasts)	Average Colony Count (A549 cells [1]; 5 µM)	Average Colony Size (A549 cells [1]; 5 µM)	Average Colony Count (A549 cells [1]; 10 µM)	Average Colony Size (A549 cells [1]; 10 µM)	inhibition at 10 µM (A549 cells [2])
23.5 µM	25.6 µM	29.1 µM		CCCCCCCCCC[n+]1ccc(C(=O)N/N=C/c2ccc[n+](CCCCCCCCCC)c2)cc1 [Compound 22, 1-Decyl-3-((2-(1-decylpyridin-1-ium-4-carbonyl)hydrazono)methyl)pyridin-1-ium Hexafluorophosphate]	> 300 µM	210	16356	98	11159	67.6%
13.5 µM		10.8 µM	11.3 µM	CCCCCCCCCC[n+]1ccc(C(=O)NN=Cc2ccc[n+](CCCCCCCCCC)c2)cc1.F[B-](F)(F)F.F[B-](F)(F)F [Compound 23, 1-Decyl-3-((2-(1-decylpyridin-1-ium-4-carbonyl)hydrazono)methyl)pyridin-1-ium Tetrafluoroborate]	> 300 µM	135	43771	45	16837	67.1%
